# Assay results: PMC11989212, “Experimental Conditions to Retrieve Intrinsic Cooperativity α Directly from Single Binding Assay Data Exemplified by the Ternary Complex Formation of FKBP12, MAPRE1 and Macrocyclic Molecular Glues” (International Journal of Molecular Sciences, 2025)
# “And” between values parts separate entries of the source, which are not always exact repeats. Equal values may be shown once. Read-outs that look alike come from different tables or passages of the source.
# How the values were obtained:
# FKBP12 [1] = target: T1, FKBP12 (Homo sapiens, UniProt P62942); assay: Spectral shift target engagement assay, binary binding to FKBP12; conditions: 40 nM FKBP12-NTA; for EC50: no MAPRE1, read-out: EC50 of the %Cbound, binary curve; for Kd: KC,1 = EC50 − [Ctot]/2
# T1 sequence (P62942 whole entry, species assumed): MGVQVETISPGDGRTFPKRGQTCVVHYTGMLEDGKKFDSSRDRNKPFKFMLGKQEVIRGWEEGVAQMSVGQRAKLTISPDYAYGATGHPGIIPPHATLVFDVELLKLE
# Text: (§1) Our method of choice is the spectral shift method, which monitors binding events on the target isothermally and in equilibrium via an environment-sensitive near-infrared fluorophore. In the case of target engagement, either the proximity of the ligand towards the dye or structural changes occurring in the target as a result of binding lead to a change in the chemical environment of the fluorophore. Those changes affect the physiochemical properties of the reporter fluorophore and translate into either blue or red shifts (or peak broadening) of emission peaks upon ligand binding, which can be sensitively monitored by simultaneously recording the fluorescence at two wavelengths (i.e., at 650 nm and 670 nm). Calculating the ratio between the two fluorescence channels then allows to monitor subtle emission shifts that occur as a result of target engagement. Affinity measurements can then be performed by recording the spectral shift as a function of ligand concentration.
# (§2) Binding studies through FKBP12: To monitor the binding of R,--SLF-11 by the stronger binding FKBP12 in the absence and in the presence of 10 μM MAPRE1 via %Cbound, binary and %Cbound, ternary, respectively, the concentration of reversibly NTA-labeled FKBP12 was limited to [Ctot] = 40 nM. […] In contrast to the experimental setup in the previous two binding experiments with monitoring through the weaker binding protein MAPRE1, where the applied protein concentrations were optimally chosen, this is not the case for the binding experiment through the stronger binder FKBP12. First of all, the applied excess of T with [Ttot] = 10 μM is roughly 20000-fold off of the proposed 100 times KT,1 threshold, which would correspond to 180 mM. Only under such excess conditions of T can the equilibrium of forming TL under the constraint that all ligand L is bound to T be reached to ensure that [Ltot] approaches the “ligand” concentration [TL]. […] If KC,2 is sufficiently high, the 20 nM deviation to correct for the protein concentration could be neglected. However, the resulting calculated value for KC,2 is 0.023 nM, accounting for the cooperativity α = 10,405 and KC,1 = 234 nM as derived by the MAPRE1 experiment. This value is far below the applied protein concentration of [Ctot] = 40 nM and makes it infeasible to estimate KC,2 from the EC50 of the %Cbound, ternary curve. Consequently, the EC50 shifts, meaning the apparent cooperativity, from monitoring the binding by the stronger binding protein C are diverging from the underlying intrinsic cooperativity α. […] The deviation of calculated (254 nM/24.2 nM = 10.5) and measured apparent cooperativity (254 nM/66 nM = 3.8) can be explained by a negative cooperativity induced by the His6-NTA tag of FKBP12. Studies to lower [Ctot] and identify a better position for the spectral shift tag on FKBP12 are ongoing (Figure 6a).
# (§3) His-tagged FKBP12 was labeled using the His-Tag Labeling Kit RED-tris-NTA 2nd Generation (MO-L018; NanoTemper Technologies GmbH). The affinity between NTA dye and the His-tag of FKBP12 was determined as 7 nM. MAPRE1 was labeled using the Protein Labeling Kit RED-NHS 2nd Generation (MO-L011; NanoTemper Technologies GmbH). In brief, 10 µM of MAPRE1 was incubated with a 3-fold molar excess of fluorophore for 30 min. The unreacted fluorophore was removed by performing a size exclusion purification (B-column). Collecting the protein fraction yielded 1.8 µM labeled MAPRE1, with a degree of labeling of 0.8, as determined on a Nanodrop.
# (§4) A 1:2 dilution series of all compounds (starting from the 10 mM stock concentration) was prepared in pure DMSO. Each concentration was diluted 25-fold with assay buffer (20 mM HEPES, pH 7.4, 150 mM NaCl, 1 mM DTT (all from Carl Roth, Karlsruhe, Germany), and 0.01% Pluronic F-127 (Sigma Aldrich, Taufkirchen, Germany)). Next, 10 µL from each of the prepared ligand dilutions was transferred into an empty well on a Dianthus Microwell Plate (DI-P001A). […]
# [2] = target: FKBP12 in the presence of MAPRE1 (Homo sapiens, UniProt P62942+Q15691); assay: Spectral shift target engagement assay, binding to FKBP12 in the presence of 10 μM MAPRE1 (ternary)
# Sequence of FKBP12 in the presence of MAPRE1 (P62942 whole entry, one chain of several): as the sequence (P62942 whole entry, species assumed) above
# Text: as §1, §2, §3, §4
# [3] = target: T2, MAPRE1 in the presence of FKBP12 (Homo sapiens, UniProt P62942+Q15691); assay: Spectral shift target engagement assay, binding to MAPRE1 in the presence of 10 μM FKBP12 (ternary); conditions: for EC50: 5 nM MAPRE1-NHS, 10 μM FKBP12, read-out: EC50 of the %Tbound, ternary curve; for Ratio [Ctot]/KC,1: [Ctot] = 10 μM FKBP12; for 100 × (EC50 %Tbound ternary − 0.5 [Ttot] − KT,2)/KT,2: difference between EC50 of the %Tbound, ternary curve and KT,2; for 100 × (EC50 %Tbound ternary − 0.5 [Ttot] − KT,2)/KT,2 / Intrinsic cooperativity α: [Ttot] = 5 nM; for Intrinsic cooperativity α: from KC,1, KT,1 and EC50 of the %Tbound, ternary curve with the mathematical model, [Ctot] = 10,000 nM; for Kd: ternary Kd, model-based ([CL] at [Ltot] = EC50), read-out: KT,2
# T2 construct: His-tag (N)
# T2 sequence (P62942 whole entry, one chain of several): as the sequence (P62942 whole entry, species assumed) above
# Text: as §1
# (§5) Binding study through MAPRE1: MAPRE1 was labeled via lysines using an NHS-conjugated dye. The final concentration of MAPRE1NHS (referring to [Ttot]) was 5 nM. Compounds could be titrated up to a concentration of 200 μM (referring to [Ltot]). […] However more accuracy could only be achieved at higher ligand concentrations—ideally at full target saturation. However, this was experimentally infeasible due to assay conditions (i.e., the requirement of maintaining a certain DMSO concentration or avoiding solubility issues of the ligand). Although the determined KT,1 values of binding to MAPRE1 are only approximations, their relative ranking reflects the underlying differences in the affinity of the ligands L to MAPRE1. Performing these experiments in duplicates confirmed the high signal-to-noise ratio, i.e., there was no significant deviation between the two curves, indicating a high accuracy of the interpolated EC50 values. Due to the low [Ttot] = 5 nM, this value coincides with KT,1 (1.8 mM − 0.005 mM/2 ≈ 1.8 mM). […] Consequently, KT,2 corresponds to 173 nM and not 177.5 nM.
# as §3
# (§6) A 1:2 dilution series of all compounds (starting from the 10 mM stock concentration) was prepared in pure DMSO. Each concentration was diluted 25-fold with assay buffer (20 mM HEPES, pH 7.4, 150 mM NaCl, 1 mM DTT (all from Carl Roth, Karlsruhe, Germany), and 0.01% Pluronic F-127 (Sigma Aldrich, Taufkirchen, Germany)). Next, 10 µL from each of the prepared ligand dilutions was transferred into an empty well on a Dianthus Microwell Plate (DI-P001A). Another 10 µL of 2-fold concentrated labeled protein (either in the absence or the presence of 20 µM counter protein, both in assay buffer then yielded the final assay concentrations. Interaction measurements were prepared in duplicates for each condition. For binary interactions of compounds with MAPRE1, a final target concentration of 5 nM and a highest ligand concentration of 50 µM was prepared. For ternary interactions of compounds and MAPRE1 in the presence of 10 µM unlabeled FKBP12, the highest ligand concentration was increased to 200 µM, the highest concentration achievable while maintaining a constant 2% DMSO concentration. For all interactions measured via FKBP12, the target was prepared at a final concentration of 40 nM, supplemented with 5 nM NTA fluorophore. […]
# [4] = system: FKBP12:R,S-SLF-X:MAPRE1 ternary complex; design: method as in PMID 40059881; conditions: TR-FRET proximity assay, reported earlier; cited from earlier work
# FKBP12 [5] = target: T1, FKBP12; design: method as in PMID 40059881; conditions: TR-FRET competitive binding assay from previous work, read-out: EC50_FKBP12, cited from earlier work
# MAPRE1 [6] = target: T3, MAPRE1 (Homo sapiens, UniProt Q15691); design: method as in PMID 40059881; conditions: previous NMR studies; read-out: affinity for MAPRE1; cited from earlier work
# T3 construct: His-tag (N)
# T3 sequence (Q15691 1-268): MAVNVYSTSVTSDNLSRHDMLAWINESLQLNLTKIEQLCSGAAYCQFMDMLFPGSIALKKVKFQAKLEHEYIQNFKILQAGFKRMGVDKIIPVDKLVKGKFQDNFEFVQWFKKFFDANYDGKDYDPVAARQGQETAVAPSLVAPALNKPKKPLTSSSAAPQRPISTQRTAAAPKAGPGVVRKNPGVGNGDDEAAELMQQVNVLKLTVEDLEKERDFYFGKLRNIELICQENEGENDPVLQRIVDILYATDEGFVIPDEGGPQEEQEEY
# MAPRE1 [7] = target: T3, MAPRE1; assay: Spectral shift target engagement assay, binary binding to MAPRE1; conditions: 5 nM MAPRE1-NHS, interpolated; for EC50: no FKBP12, read-out: EC50 of the %Tbound, binary curve; for Kd: approximation, read-out: Spectral Shift Binary MAPRE1 KT,1
# Text: as §1, §5, §3, §6
# [8] = target: His-tagged FKBP12, labeled with RED-tris-NTA dye (UniProt P62942); assay: other fluorescence titration; spectral shift, no compound: 40 nM labeled FKBP12 vs. 10,000 nM MAPRE1
# Sequence of His-tagged FKBP12, labeled with RED-tris-NTA dye (P62942 whole entry): as the sequence (P62942 whole entry, species assumed) above
# [9] = 40 nM FKBP12-NTA, 10 μM MAPRE1, read-out: EC50 of the %Cbound, ternary curve (measured)
# [10] = calculated with the model using α from MAPRE1 binding, read-out: calc EC50 of the %Cbound, ternary curve
Compound,EC50 (FKBP12 [1]) [µM],Kd (FKBP12 [1]) [µM],"EC50 [2, 9] [µM]",EC50 [3] [µM],"Ratio [Ctot]/KC,1 [3]","100 × (EC50 %Tbound ternary − 0.5 [Ttot] − KT,2)/KT,2 [3] [%]",Intrinsic cooperativity α [3],Kd [3],TR-FRET Recruitment Assay (%Amax) [4] [%],"EC50 [2, 10] [µM]",EC50 (FKBP12 [5]) [µM],Kd (MAPRE1 [6]) [µM],EC50 (MAPRE1 [7]) [µM],Kd (MAPRE1 [7]) [µM],"EC50 (FKBP12 [5]; listed as R,R-SLF-1d) [µM]",Kd [8] [µM]
"C=C1CCN2C(=O)COc3cccc(c3)C(CCc3ccc(OC)c(OC)c3)OC(=O)C3CCCCN3C(=O)C(=O)C(C)(C)COC(=O)C(C)(C)NC(=O)C2C1 (stereo not drawn) [R,--SLF-10]",0.128,0.108,0.04,0.377,93,1.2,5405,0.37 µM,135,,,,,,,
"C=C1CCN2C(=O)COc3cccc(c3)C(CCc3ccc(OC)c(OC)c3)OC(=O)C3CCCCN3C(=O)C(=O)C(C)(C)COC(=O)C3(CC3)NC(=O)C2C1 (stereo not drawn) [R,--SLF-11]",0.254,0.234,0.066,0.18,41,2.6,"10,405",0.173 µM,350,,,,,,,
"C=C1CCN2C(=O)COc3cccc(c3)C(CCc3ccc(OC)c(OC)c3)OC(=O)C3CCCCN3C(=O)C(=O)C(C)(C)COC(=O)C(C)NC(=O)C2C1 (stereo not drawn) [R,S-SLF-1a]",0.041,0.021,0.045,1.03,476,0.3,1951,1.02 µM,51,0.02,0.23,> 250,,,,
"C=C1CCN2C(=O)COc3cccc(c3)C(CCc3ccc(OC)c(OC)c3)OC(=O)C3CCCCN3C(=O)C(=O)C(C)(C)COC(=O)C(CC)NC(=O)C2C1 (stereo not drawn) [R,S-SLF-3]",0.086,0.066,0.049,0.827,152,0.8,2200,0.818 µM,93,0.025,,,> 200,> 200,,
"C=C1CCN2C(=O)COc3cccc(c3)C(CCc3ccc(OC)c(OC)c3)OC(=O)C3CCCCN3C(=O)C(=O)C(C)(C)COC(=O)C(CO)NC(=O)C2C1 (stereo not drawn) [R,S-SLF-6]",0.065,0.045,0.024,0.114,222,0,4484,~0.111 µM and 0.111 µM,255,0.021,,,> 200,> 200,,
"C=C1CCN2C(=O)COc3cccc(c3)C(CCc3ccc(OC)c(OC)c3)OC(=O)C3CCCCN3C(=O)C(=O)C(C)(C)COC(=O)C(C(F)(F)F)NC(=O)C2C1 (stereo not drawn) [R,S-SLF-8]",0.129,0.109,0.065,1.07,92,1.1,1509,1.06 µM,27,0.031,,,> 200,> 200,,
"C=C1CCN2C(=O)COc3cccc(c3)C(CCc3ccc(OC)c(OC)c3)OC(=O)C3CCCCN3C(=O)C(=O)C(C)(C)COC(=O)C(CCOC)NC(=O)C2C1 (stereo not drawn) [R,S-SLF-9]",,,,,,,,,51,,,,,,,
"C=C1CCN2C(=O)COc3cccc(c3)C(CCc3ccc(OC)c(OC)c3)OC(=O)C3CCCCN3C(=O)C(=O)C(C)(C)COC(=O)C(C)NC(=O)C2C1 (stereo not drawn) [S,S-SLF-1d]",0.027,0.007,0.029,> 1400,1428 and 1429,,No positive cooperativity,,0,,,,> 200,> 200,0.72,
unlabeled MAPRE1 (from UniProt Q15691 1-268) (natural protein),,,,,,,,,,,,,,,,> 100
